Like-named read-outs stand apart in the source and are kept apart here.
Key:
DU-145 cells [1] = assay: Wound healing assay; format: cell-based; details: scrambled peptides compared to LA3IK and RP-7 at equivalent concentrations
Procedure: (§1) The wound healing assay was performed using two breast cancer cell lines, MDA-MB-231 and MCF-7, and two prostate cancer cell lines, PC-3 and DU-145, to evaluate the antimigratory capacity of the peptides. […] The cells were grown to approximately 80% confluency in 12-well tissue culture plates, and a cell-free area was created by scraping the monolayer. The peptides were added, and the cells were incubated at 37 °C with 5% CO2 for 24 h. Wound closure was assessed by imaging the wounds at 0 and 24 h, and the wound areas were quantified using ImageJ software (https://imagej.net/ij/). In the transwell invasion assay, MDA-MB-231 cells were serum starved for 4 h followed by a pretreatment with increasing concentrations of each peptide in a 0.1% serum-containing DMEM for 24 h. The cells were then trypsinized, resuspended in same media for the second treatment of peptides, and counted. Next, 40,000 cells were resuspended in 0.1% serum containing DMEM and added to the upper chamber of Transwell plates (Corning Life Sciences) with a polyethylene terephthalate membrane (6.4 mm diameter, 8 μm pore size). The bottom chambers were filled with DMEM containing 10% FBS as a chemoattractant. The transwell plates were incubated at 37 °C with 5% CO2 for 24 h to allow the invasion of cells through the membrane. The invaded cells on the lower side of the membrane were fixed with 4% paraformaldehyde for 15 min, followed by a PBS wash. The membrane inserts were further fixed with ice-cold methanol for 20 min and stained with 0.25% (w/v) crystal violet. After incubation, the noninvasive cells on the upper surface of the membrane were gently removed using a cotton swab. Random fields were chosen for imaging, and the number of invaded cells was counted using ImageJ software. The results were expressed as the average number of invaded cells compared with the control.

MCF-7 cells = assay: Wound healing assay; format: cell-based; details: scrambled peptides compared to LA3IK and RP-7 at equivalent concentrations
Procedure: as §1

PC-3 cells = assay: Wound healing assay; format: cell-based; details: scrambled peptides compared to LA3IK and RP-7 at equivalent concentrations
Procedure: as §1

MDA-MB-231 cells [2] = assay: Wound healing assay; format: cell-based; details: for inhibition of migration: equimolar peptide concentrations, compared to untreated cells
Procedure: as §1

DU-145 = format: cell-based; details: MTT, 48 hours
Procedure: (§2) MDA-MB-231, MCF-7, DU-145, PC-3, and NIH-3T3 cell lines were procured from the American Type Culture Collection and used within ten consecutive passages to ensure consistent cell behavior. MDA-MB-231, MCF-7, and NIH-3T3 cells were maintained at 37 °C and 5% CO2 in Dulbecco's modified Eagle's medium (DMEM) high glucose (Hyclone) supplemented with 10% fetal bovine serum (FBS) and 1% Antibiotic-Antimycotic (Gibco), while DU-145 and PC-3 cells were grown in RPMI-1640 supplemented with the same concentration of FBS and Antibiotic-Antimycotic. The media was replenished every 2 days. Cells were checked for mycoplasma at regular intervals using a PCR-based Mycoplasma detection kit plasmocin prophylactic (InvivoGen). In all experiments, cells were maintained in serum-free DMEM for 6 h before peptide treatment. Peptide treatment was done in the media containing 0.1% fetal bovine serum for 48 h in all the experiments unless otherwise stated.
(§3) Cell viability was determined by 3-[4,5-dimethylthiazol-2-yl]-2,5 diphenyl tetrazolium bromide (MTT) assay as described earlier ([52]). ProTox-II "Prediction of Toxicity of Chemicals" web server was used for toxicology assessment ([19]). See the Supporting Information for full experimental details.
(§4) Full Experimental Method for Cell Viability Assay:
(§5) Cell viability of murine NIH- 3T3 cells, as well as MDA- MB -231 , MC F-7, PC- 3, and DU-145 cells, wa s assessed through the MT T assay as described previously(1). Approximately
(§6) 5000 cells per well were seeded in a 96-well plate and allowed to incubate overnight for attachment. Following attachment, the growth medium was replaced wit h a fresh medium
(§7) containing serial dilutions of peptides. The cells we re then incubated for 48 hours in a 5% CO2 incubator . After incubation, 10 μl of a 5 mg/mL MT T solution was introduced to each
(§8) well and left to incubate for an additional 2 hours . Subsequently, the entire medium, along wit h the MT T solution, was aspirated, and the remaining formazan crystals were dissolved
(§9) in 200 μl of DMSO. The absorbance was measured at 595 nm using a Biotek Synergy 2 Plate Reader. […]
(§10) ProTox-II "Prediction of Toxicity of Chemicals" we b server was used for toxicology assessment. […]

PC-3 = format: cell-based; details: MTT, 48 hours
Procedure: as §2, §3, §4, §5, §6, §7, §8, §9, §10

MCF-7 = format: cell-based; details: MTT, 48 hours
Procedure: as §2, §3, §4, §5, §6, §7, §8, §9, §10

MDA-MB-231 = format: cell-based; details: MTT, 48 hours
Procedure: as §2, §3, §4, §5, §6, §7, §8, §9, §10

DU-145 cells [3] = assay: Quantitative real-time PCR of EMT-related genes; format: cell-based; details: 48 h, 90 μM; for inhibition of the majority of the genes examined in the PCR analysis: except for SNAIL
Procedure: 18S RNA transcript levels were used for internal control. […] E-cadherin and SNAIL are increased and decreased, respectively, when probed with antibodies specific for these proteins as compared to the untreated. […] Densitometry was determined and normalized to total protein or β-actin. Peptide concentration: 90 μM. All the assays were performed in triplicates and the results are expressed as means ± SD. […] EMT, epithelial-mesenchymal transition; MMP-9, matrix metalloproteinase 9; NF-κB, nuclear factor kappa B.
Total RNA was extracted using the TRIzol reagent (Invitrogen). One microgram of total RNA was used for complementary DNA reverse transcription using the Superscript-III First Strand Synthesis kit (Invitrogen) following the manufacturer's protocol. All real-time PCR reactions were performed in duplicates in a 20 μl volume using SYBR Green Master Mix (Invitrogen) in a Realplex2 Mastercycler ep gradient S thermal cycler (Eppendorf). The PCR program followed for all the primers was an activation at 95 °C for 15 min, followed by 40 cycles of 95 °C for 30 s, 54 °C for 1 min, and 72 °C for 45 s. The reaction was finally put to hold at 4 °C. Subsequently, 18S was used as the reference gene for the mRNA levels. Relative change in gene expression was calculated according to the ΔΔCt method ([53], [54]).

NIH-3T3 = format: cell-based, murine; details: MTT, 48 hours; normal cells
Procedure: as §2, §3, §4, §5, §6, §7, §8, §9, §10

in vitro [4] = details: microsomes
Procedure: An NADPH-regenerating system (1.7 mg/ml NADP, 7.8 mg/ml glucose-6-phosphate, 6 U/ml glucose-6-phosphate dehydrogenase in 2% w/v NaHCO3/10 mm MgCl2) was added for analysis of Phase I metabolism after heating both the regenerating solution and the sample tubes to 37 °C for 5 min in a 37 °C shaking water bath. The incubation was continued and at varying time points after addition of phase I cofactors, the reaction was stopped by the addition of 0.5 ml of acetonitrile containing IS and formic acid such that the final concentration of IS was 100 ng/ml and acid was 0.1%. Time 0 samples were stopped with the acetonitrile solution while still on ice prior to addition of the NADPH regenerating system and compound, which were subsequently added. The samples were incubated for 10 min at room temperature and then spun at 16,100g for 5 min in a microcentrifuge at 4 °C. The supernatant was analyzed by LC-MS/MS. The method described by McNaney et al. was used with modification for determination of metabolic stability half-life by substrate depletion ([59]). A “% remaining” value was used to assess the metabolic stability of a compound over time. The LC-MS/MS peak area of the incubated sample at each time point was divided by the LC-MS/MS peak area of the time 0 (T0) sample and multiplied by 100. The natural Log (LN) of the % remaining of compound was then plotted versus time (in min) and a linear regression curve was plotted going through y-intercept at LN (100).

[5] = mouse, in vivo, iv, 5 mg/kg
MDA-MB-231 cells [6] = assay: Western blot of MIEN1 signaling pathway proteins; format: cell-based; details: mean values of immunoblot densitometry
Procedure: Cells were exposed to the peptides and subjected to Western blot analysis with the indicated antibodies. […] Cytoplasmic and nuclear cell lysate extracts of EGF only and EGF plus peptide-treated cells were probed for p65 and p50. Lamin A/C and β-actin were used as nuclear and cytoplasmic loading control respectively. Densitometry was determined with immunoblots (N = 3) and normalized to total protein or β-actin for whole cell lysates and cytoplasmic fraction of peptide-treated MDA-MB-231 cells. In case of nuclear lysates, the immunoblots were normalized with Lamin A/C. Bar graphs are densitometric data (means ± SD). […] EGF concentration: (10 ng/ml); Peptide concentration: 90 μM. EGF, epidermal growth factor; MIEN1, migration and invasion enhancer 1; NF-κB, nuclear factor kappa B.
Western blot analysis was performed according to standard protocols to assess the effects of MIEN1-derived peptides and their analogs on MDA-MB-231 cells and DU-145 cells. Cell lysates were prepared using radioimmunoprecipitation assay buffer and quantified for protein content by bicinchoninic acid method. […] Protein blocking with 5% bovine serum albumin was followed by incubation with primary antibodies specific to various proteins at 4 °C for 8 to 10 h. The membrane was then washed three times in Tris Buffered Saline with Tween 20 and incubated with the appropriate secondary antibody. Protein bands were visualized using the Alpha Innotech chemiluminescent detection system. In case of MDA-MB-231 cells, cytoplasmic and nuclear extracts were isolated to investigate the effects of peptides and/or EGF stimulation. Prior to exposure to the cells, the test peptides (90 μM) were incubated with EGF (10 ng/ml) in media at 4 °C for 15 min. The untreated MDA-MB-231 cells received EGF alone at the same concentration. The isolation of cytoplasmic and nuclear fractions was performed using the Subcellular Protein Fractionation Kit for Cultured Cells from Thermo Fisher Scientific (cat #78840) following the manufacturer's guidelines. For Western blot experiments, 20 μg of purified cytoplasmic and nuclear fraction was used.
Densitometry analysis of Western blot data was conducted using the AlphaView-FluorChem HD2 software of the Alpha Innotech chemiluminescent detection system (https://www.cambridgescientific.com/product/alpha-innotech-fluorchem-hd2-gel-imaging-system). To quantify band intensities, a uniform rectangle was drawn around each band, and background subtraction was applied to determine the total pixel density for each lane. Further calculations, including the determination of the ratio of phosphorylated proteins to total proteins or other loading controls, were carried out using Microsoft Excel. […]

in vivo = details: female, CD1, mouse, iv, 5 mg/kg
[7] = Pharmacokinetic studies in CD1 mice; details: mouse, in vivo, iv, 5 mg/kg
in vitro [8] = details: plasma
Procedure: CD1 mouse plasma isolated using acidified citrate dextrose was purchased from BioIVT. Each peptide's dimethyl sulfoxide stock was then mixed into the plasma, resulting in a 2 μM final concentration. An aliquot was immediately collected for a zero time point and quenched with an equal volume of acetonitrile containing 0.2% formic acid and 200 ng/ml tolbutamide IS. […] Samples were withdrawn at specific intervals and processed similarly to the zero time point. The supernatant obtained after vortexing and centrifugation was subjected to LC-MS/MS analysis as previously detailed. A control incubation was performed using 0.9% NaCl (saline).

Compound: Ac-RPPLVIC-NH2 [RP-7 SCR]
- antimigratory activity in wound healing assay (DU-145 cells [1]): reduced antimigratory activity
- antimigratory activity in wound healing assay (MCF-7 cells): reduced antimigratory activity
- antimigratory activity in wound healing assay (PC-3 cells): reduced antimigratory activity
- inhibition of migration (MDA-MB-231 cells [2]): nonsignificant inhibition
- IC50 (DU-145): 137 ± 5.98 µM
- IC50 (PC-3): 128 ± 11.7 µM
- IC50 (MCF-7): 150 ± 10.3 µM
- IC50 (MDA-MB-231): 156 ± 8.15 µM
- expression of SLUG and Zeb-1 (DU-145 cells [3]): reduced expression
- inhibition of the majority of the genes examined in the PCR analysis (DU-145 cells [3]): statistically nonsignificant inhibition
- IC50 (NIH-3T3): > 600 µM

Compound: CC[C@@H](C)[C@@H](NC(=O)[C@@H](C)NC(=O)[C@@H](CC(C)C)NC(C)=O)C(=O)N[C@H](C)C(=O)N[C@@H](C(=O)N[C@H](CCCCN)C(N)=O)C(C)C [D-LA3IK]
- remaining at 2 h, 2 μM (in vitro [4]; male, Institute of Cancer Research/CD-1, mouse, pH 7.5): 100%
- half-life (in vitro [4]; mouse): > 2 h
- decrease in cell migration compared to L counterpart (MDA-MB-231 cells [2]; identical concentrations of D- and L-isomer): 30.2%
- AUC(0-t) [5]: 3400 ng·h/mL
- Cmax [5]: 3570 ng/mL
- clearance [5]: 24.5 mL/min/kg
- half-life [5]: 3.58 h
- greater inhibition of FAK phosphorylation than L-peptide counterpart (MDA-MB-231 cells [6]): 34.2%
- greater inhibition of SRC phosphorylation than L-peptide counterpart (MDA-MB-231 cells [6]): 48.8%
- MRT (in vivo): 1.03 h
- Tmax (in vivo): 4.8 min
- Vd (in vivo): 7.58 L/kg
- Vd [7]: 1.57 L/kg
- remaining at 24 h, 2 μM (in vitro [8]; CD1, mouse): 75%
- half-life (in vitro [8]; mouse): > 24 h

Compound: Ac-LAKAVI-NH2 [LA3IK-SCR]
- antimigratory activity in wound healing assay (DU-145 cells [1]): reduced antimigratory activity
- antimigratory activity in wound healing assay (MCF-7 cells): reduced antimigratory activity
- antimigratory activity in wound healing assay (PC-3 cells): reduced antimigratory activity
- inhibition of migration (MDA-MB-231 cells [2]): nonsignificant inhibition
- IC50 (DU-145): 352 ± 7.18 µM
- IC50 (PC-3): 319 ± 13.6 µM
- IC50 (MCF-7): 133 ± 9.52 µM
- IC50 (MDA-MB-231): 243 ± 8.16 µM
- gene expression in Zeb-1 and SNAIL (DU-145 cells [3]): statistically diminished
- inhibition of the majority of the genes examined in the PCR analysis (DU-145 cells [3]): statistically nonsignificant inhibition
- IC50 (NIH-3T3): > 600 µM

Source: publication PMC10878790 (The Journal of Biological Chemistry, 2024)
